Results on one molecule are retold here after PMC3433560 (Bioorganic & medicinal chemistry letters, 2012).

The assay has as its target KCNQ1 channels (Homo sapiens, UniProt P51787). As to the kind of experiment: cell-based.

Each structure is given as a SMILES string.

KCNQ1 channels, sequence (P51787 whole entry): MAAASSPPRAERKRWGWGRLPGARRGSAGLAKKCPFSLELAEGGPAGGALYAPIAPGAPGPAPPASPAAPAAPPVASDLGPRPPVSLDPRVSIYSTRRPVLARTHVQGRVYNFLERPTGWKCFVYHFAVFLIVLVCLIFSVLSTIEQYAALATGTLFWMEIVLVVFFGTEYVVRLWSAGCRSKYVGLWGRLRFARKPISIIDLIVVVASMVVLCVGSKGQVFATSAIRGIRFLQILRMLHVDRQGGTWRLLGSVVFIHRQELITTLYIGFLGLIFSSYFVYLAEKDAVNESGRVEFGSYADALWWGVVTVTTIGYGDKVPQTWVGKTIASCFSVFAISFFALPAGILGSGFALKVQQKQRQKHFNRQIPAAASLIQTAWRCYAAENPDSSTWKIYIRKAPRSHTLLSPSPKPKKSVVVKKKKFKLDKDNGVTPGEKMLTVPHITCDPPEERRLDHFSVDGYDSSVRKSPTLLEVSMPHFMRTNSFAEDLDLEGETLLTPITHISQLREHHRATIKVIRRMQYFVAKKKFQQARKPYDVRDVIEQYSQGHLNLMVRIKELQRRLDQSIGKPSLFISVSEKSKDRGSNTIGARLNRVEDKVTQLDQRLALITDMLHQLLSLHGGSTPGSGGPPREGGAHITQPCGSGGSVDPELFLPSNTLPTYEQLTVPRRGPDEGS

Regarding `COc1ccc(-c2csc(NC(=O)C3CCCCN3S(=O)(=O)c3ccccc3)n2)cc1` (stereo not shown) [compound 5], the EC50 – broadly, the concentration at which the effect is half-maximal – was 660 nM.
